# Assay results published in PMC8222254, “Self-assembly of an anion receptor with metal-dependent kinase inhibition and potent in vitro anti-cancer properties” (Nature Communications, 2021).
# “And” between values parts separate entries of the source, which are not always exact repeats. Equal values may be shown once.
# Legend:
# Assay in all cases: Kinase inhibition screen, cell-free 33P ATP assay at 10 μM
# Type in all cases: biochemical
# [1] = target: 140 purified human kinases (Homo sapiens, UniProt P05129); details: PKCγ
# In short: (§1)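 Each complex tested in duplicate at 10 μM; cell-free radiometric assay using ^33P ATP on purified enzymes. Hits mapped by HGNC symbol onto the kinome tree.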
# [2] = target: 140 purified human kinases (Homo sapiens, UniProt P24941); details: CDK2-Cyclin A
# In short: as §1
# [3] = target: 140 purified human kinases (Homo sapiens, UniProt Q15418)
# Chain of 140 purified human kinases (Homo sapiens, UniProt Q15418) (Q15418 whole entry): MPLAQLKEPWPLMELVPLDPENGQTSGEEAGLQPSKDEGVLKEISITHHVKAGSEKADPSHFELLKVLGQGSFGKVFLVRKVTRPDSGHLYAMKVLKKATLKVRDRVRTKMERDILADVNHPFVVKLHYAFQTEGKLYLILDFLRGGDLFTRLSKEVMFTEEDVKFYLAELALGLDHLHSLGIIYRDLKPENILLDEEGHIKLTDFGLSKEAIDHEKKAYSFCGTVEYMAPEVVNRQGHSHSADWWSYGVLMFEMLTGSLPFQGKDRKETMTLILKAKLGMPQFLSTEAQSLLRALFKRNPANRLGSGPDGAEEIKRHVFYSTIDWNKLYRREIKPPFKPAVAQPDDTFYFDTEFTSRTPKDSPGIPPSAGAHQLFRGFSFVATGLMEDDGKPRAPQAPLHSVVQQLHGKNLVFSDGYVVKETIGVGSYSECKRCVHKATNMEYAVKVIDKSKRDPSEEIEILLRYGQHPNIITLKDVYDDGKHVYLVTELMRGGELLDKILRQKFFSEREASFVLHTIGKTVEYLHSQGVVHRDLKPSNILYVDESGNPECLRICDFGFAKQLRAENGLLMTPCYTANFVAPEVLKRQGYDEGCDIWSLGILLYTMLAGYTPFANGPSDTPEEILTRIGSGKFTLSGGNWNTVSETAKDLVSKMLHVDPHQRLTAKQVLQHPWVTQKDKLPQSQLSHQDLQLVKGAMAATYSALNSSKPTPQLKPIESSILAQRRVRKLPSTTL
# In short: as §1
# [4] = target: 140 purified human kinases (Homo sapiens, UniProt P48730); details: CK1δ; for % Activity Run 1 / % Activity Run 2: 10 µM
# Chain of 140 purified human kinases (Homo sapiens, UniProt P48730) (P48730 whole entry): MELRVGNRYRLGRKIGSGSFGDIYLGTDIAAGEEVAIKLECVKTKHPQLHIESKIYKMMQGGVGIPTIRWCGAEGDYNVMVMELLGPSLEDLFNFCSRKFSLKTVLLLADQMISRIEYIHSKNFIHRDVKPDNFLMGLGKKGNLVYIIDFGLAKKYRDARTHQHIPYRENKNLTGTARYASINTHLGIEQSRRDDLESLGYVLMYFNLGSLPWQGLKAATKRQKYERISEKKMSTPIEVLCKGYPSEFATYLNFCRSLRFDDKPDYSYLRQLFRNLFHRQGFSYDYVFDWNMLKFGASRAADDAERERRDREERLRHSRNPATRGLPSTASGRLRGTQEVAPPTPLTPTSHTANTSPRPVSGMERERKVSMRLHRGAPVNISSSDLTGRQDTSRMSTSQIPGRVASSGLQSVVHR
# In short: as §1
# [5] = target: 140 purified human kinases (Homo sapiens, UniProt Q96GD4); details: Aurora B
# Chain of 140 purified human kinases (Homo sapiens, UniProt Q96GD4) (Q96GD4 whole entry): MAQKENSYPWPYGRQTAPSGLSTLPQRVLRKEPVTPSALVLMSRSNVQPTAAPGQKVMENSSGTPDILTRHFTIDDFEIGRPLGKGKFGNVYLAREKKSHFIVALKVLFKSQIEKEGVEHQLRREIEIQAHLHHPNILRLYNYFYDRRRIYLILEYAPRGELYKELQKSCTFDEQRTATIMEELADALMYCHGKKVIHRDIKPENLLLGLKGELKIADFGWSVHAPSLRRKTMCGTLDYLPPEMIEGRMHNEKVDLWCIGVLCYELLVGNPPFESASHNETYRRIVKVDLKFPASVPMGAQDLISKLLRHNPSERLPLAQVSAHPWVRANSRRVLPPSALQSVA
# In short: as §1
# [6] = target: T1, 140 purified human kinases (Homo sapiens, UniProt Q8IW41); details: PRAK
# T1 sequence (Q8IW41 1-473): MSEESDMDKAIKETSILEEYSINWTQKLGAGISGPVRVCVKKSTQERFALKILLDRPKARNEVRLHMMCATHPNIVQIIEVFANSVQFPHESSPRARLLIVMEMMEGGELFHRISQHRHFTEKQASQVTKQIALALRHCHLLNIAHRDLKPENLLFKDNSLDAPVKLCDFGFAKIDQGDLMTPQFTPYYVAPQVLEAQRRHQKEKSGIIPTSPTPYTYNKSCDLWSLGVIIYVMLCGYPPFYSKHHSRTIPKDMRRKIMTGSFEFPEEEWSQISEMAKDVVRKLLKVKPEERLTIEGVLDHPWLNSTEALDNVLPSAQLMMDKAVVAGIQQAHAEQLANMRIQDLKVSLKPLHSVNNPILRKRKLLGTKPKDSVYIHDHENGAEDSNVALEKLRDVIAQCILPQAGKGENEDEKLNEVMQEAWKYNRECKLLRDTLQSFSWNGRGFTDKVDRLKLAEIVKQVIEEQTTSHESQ
# In short: as §1
# [7] = target: T2, 140 purified human kinases (Homo sapiens, UniProt Q16832)
# T2 sequence (Q16832 22-855): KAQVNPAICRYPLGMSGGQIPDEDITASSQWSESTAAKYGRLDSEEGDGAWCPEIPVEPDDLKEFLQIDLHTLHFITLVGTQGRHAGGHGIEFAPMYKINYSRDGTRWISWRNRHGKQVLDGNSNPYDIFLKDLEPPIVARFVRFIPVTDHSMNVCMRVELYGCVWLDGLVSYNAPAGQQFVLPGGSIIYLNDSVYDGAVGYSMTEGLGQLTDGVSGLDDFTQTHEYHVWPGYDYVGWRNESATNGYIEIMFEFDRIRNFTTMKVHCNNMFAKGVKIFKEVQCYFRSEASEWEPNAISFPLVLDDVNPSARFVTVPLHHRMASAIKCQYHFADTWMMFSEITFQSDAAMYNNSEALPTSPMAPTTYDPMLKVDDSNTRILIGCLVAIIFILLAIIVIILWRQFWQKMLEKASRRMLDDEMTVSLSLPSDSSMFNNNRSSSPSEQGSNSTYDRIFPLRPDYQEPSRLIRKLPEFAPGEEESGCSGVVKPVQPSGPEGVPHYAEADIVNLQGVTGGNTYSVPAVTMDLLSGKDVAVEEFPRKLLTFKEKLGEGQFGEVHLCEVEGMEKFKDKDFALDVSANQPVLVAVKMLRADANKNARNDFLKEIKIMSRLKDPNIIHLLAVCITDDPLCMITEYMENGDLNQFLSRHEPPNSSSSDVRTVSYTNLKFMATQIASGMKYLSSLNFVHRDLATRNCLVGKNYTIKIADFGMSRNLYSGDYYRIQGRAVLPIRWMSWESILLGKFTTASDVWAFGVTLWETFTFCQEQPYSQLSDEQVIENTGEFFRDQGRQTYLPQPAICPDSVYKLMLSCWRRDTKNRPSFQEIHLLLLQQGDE
# In short: as §1
# [8] = target: 140 purified human kinases (Homo sapiens, UniProt Q02763)
# Chain of 140 purified human kinases (Homo sapiens, UniProt Q02763) (Q02763 23-1124): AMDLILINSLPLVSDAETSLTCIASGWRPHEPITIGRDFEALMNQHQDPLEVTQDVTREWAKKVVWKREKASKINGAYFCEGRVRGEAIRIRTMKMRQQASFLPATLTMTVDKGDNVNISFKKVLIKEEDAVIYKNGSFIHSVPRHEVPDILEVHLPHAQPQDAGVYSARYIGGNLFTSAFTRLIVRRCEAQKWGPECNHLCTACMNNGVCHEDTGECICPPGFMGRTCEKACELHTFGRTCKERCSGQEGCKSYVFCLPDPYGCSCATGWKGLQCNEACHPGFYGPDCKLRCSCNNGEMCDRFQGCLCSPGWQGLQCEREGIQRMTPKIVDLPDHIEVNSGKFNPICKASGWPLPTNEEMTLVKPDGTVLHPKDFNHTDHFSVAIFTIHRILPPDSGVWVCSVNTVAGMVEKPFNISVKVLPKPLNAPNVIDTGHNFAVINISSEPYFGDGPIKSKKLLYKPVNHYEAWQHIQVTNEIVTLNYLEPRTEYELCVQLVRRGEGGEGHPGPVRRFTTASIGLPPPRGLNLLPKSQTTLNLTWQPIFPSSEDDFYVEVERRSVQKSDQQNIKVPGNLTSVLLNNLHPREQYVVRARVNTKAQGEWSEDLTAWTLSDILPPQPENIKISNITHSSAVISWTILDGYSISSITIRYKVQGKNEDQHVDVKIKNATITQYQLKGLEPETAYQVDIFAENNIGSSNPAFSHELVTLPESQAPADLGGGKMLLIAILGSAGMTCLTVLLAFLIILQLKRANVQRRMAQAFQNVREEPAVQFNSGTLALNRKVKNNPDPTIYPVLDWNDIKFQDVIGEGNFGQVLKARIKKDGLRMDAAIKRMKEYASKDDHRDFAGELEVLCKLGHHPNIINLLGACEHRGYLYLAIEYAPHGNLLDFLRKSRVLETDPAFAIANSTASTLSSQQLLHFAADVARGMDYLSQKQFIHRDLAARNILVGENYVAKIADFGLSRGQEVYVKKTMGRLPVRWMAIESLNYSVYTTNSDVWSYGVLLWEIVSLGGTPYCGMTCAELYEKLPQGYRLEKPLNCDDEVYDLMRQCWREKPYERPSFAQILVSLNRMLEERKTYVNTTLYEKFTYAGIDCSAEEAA
# In short: as §1
# [9] = target: 140 purified human kinases (Homo sapiens, UniProt Q9H422)
# Chain of 140 purified human kinases (Homo sapiens, UniProt Q9H422) (Q9H422 whole entry): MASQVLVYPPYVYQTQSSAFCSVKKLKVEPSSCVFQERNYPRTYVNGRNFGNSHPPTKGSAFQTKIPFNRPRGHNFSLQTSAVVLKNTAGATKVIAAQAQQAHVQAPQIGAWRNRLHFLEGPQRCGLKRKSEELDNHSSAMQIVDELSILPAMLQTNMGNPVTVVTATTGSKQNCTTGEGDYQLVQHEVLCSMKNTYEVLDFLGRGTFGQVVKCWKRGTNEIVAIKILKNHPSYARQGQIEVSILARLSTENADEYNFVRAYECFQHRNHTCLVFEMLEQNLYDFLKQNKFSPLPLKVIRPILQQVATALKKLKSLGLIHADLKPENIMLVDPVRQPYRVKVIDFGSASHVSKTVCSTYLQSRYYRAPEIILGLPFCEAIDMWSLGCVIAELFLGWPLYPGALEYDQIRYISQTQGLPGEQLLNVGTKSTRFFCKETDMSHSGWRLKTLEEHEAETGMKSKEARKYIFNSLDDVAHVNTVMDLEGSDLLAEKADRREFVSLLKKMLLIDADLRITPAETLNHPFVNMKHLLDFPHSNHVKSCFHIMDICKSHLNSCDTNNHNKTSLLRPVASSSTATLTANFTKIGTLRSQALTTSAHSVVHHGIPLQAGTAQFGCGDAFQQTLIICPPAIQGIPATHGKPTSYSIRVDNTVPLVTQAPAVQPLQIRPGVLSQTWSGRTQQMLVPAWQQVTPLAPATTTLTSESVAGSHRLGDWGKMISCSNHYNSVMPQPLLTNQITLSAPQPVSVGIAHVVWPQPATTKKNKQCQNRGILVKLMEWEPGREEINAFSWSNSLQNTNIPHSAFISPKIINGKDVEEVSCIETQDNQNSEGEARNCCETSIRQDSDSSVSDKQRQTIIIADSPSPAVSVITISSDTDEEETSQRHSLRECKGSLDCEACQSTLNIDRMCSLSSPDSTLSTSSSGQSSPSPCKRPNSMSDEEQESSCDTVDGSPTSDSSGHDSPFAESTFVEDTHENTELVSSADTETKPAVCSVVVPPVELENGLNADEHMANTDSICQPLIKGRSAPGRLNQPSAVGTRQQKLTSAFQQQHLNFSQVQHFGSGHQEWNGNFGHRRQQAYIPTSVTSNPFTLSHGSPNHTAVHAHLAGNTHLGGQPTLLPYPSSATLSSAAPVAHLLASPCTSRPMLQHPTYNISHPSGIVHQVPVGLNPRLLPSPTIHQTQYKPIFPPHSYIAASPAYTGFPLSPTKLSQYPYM
# In short: as §1
# [10] = target: 140 purified human kinases (Homo sapiens, UniProt P27361)
# Chain of 140 purified human kinases (Homo sapiens, UniProt P27361) (P27361 whole entry): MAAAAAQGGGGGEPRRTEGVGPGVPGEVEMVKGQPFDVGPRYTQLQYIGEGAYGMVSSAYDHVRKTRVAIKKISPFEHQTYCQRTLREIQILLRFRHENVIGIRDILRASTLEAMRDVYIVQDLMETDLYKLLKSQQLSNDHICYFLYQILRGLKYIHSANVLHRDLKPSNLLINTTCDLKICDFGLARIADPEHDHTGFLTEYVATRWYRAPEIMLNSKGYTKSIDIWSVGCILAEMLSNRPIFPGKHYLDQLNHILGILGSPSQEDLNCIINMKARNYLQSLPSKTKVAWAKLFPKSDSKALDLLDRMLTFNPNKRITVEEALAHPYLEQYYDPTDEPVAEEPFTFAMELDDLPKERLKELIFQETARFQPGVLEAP
# In short: as §1
smiles,measurement,setting,value
[Cu+2].[Cu+2].[Cu+2].c1ccc(-c2csc(NCCN(CCNc3nc(-c4ccccn4)cs3)CCNc3nc(-c4ccccn4)cs3)n2)nc1.c1ccc(-c2csc(NCCN(CCNc3nc(-c4ccccn4)cs3)CCNc3nc(-c4ccccn4)cs3)n2)nc1 [[L2Cu3]6+],% Inhibition Run 1,[1],58.1%
same,% Inhibition Run 2,[1],72%
same,"% Inhibition, Mean",[1],65%
same,mean % activity,[1],35%
same,% activity,[1]; Run 1,41.9%
same,% activity,[1]; Run 2,28%
same,"% Activation, Mean value",[2],9.5%
same,% Inhibition Run 1,[2],-10.1%
same,% Inhibition Run 2,[2],-8.9%
same,"% Inhibition, Mean",[2],-9.5%
same,mean % activity,[2],110%
same,% activity,[2]; Run 1,110.1%
same,% activity,[2]; Run 2,108.9%
same,% Activity Run 1,[2]; 10 µM,110.10%
same,% Activity Run 2,[2]; 10 µM,108.90%
same,% Inhibition Run 1,[3]; RSK1,96.7%
same,% Inhibition Run 2,[3]; RSK1,97%
same,"% Inhibition, Mean",[3]; RSK1,97%
same,mean % activity,[3]; RSK1,3%
same,% activity,"[3]; RSK1, Run 1",3.3%
same,% activity,"[3]; RSK1, Run 2",3%
same,% Activity inhibition Mean,"[3]; RSK1, 10 µM",96.9%
same,% Activity inhibition Run 1,"[3]; RSK1, 10 µM",96.7%
same,% Activity inhibition Run 2,"[3]; RSK1, 10 µM",97%
same,% Activity remaining Run 1,"[3]; RSK1, 10 µM",3.30%
same,% Activity remaining Run 2,"[3]; RSK1, 10 µM",3.00%
same,"% Activation, Mean value",[4],12%
same,% Inhibition Run 1,[4],-26.4%
same,% Inhibition Run 2,[4],2.3%
same,"% Inhibition, Mean",[4],-12%
same,mean % activity,[4],112%
same,% activity,[4]; Run 1,126.4%
same,% activity,[4]; Run 2,97.7%
same,% Activity Run 1,[4],126.40%
same,% Activity Run 2,[4],97.70%
same,% Inhibition Run 1,[5],92.4%
same,% Inhibition Run 2,[5],91.3%
same,"% Inhibition, Mean",[5],92%
same,mean % activity,[5],8%
same,% activity,[5]; Run 1,7.6%
same,% activity,[5]; Run 2,8.7%
same,% Activity inhibition Mean,[5]; 10 µM,91.9%
same,% Activity inhibition Run 1,[5]; 10 µM,92.4%
same,% Activity inhibition Run 2,[5]; 10 µM,91.3%
same,% Activity remaining Run 1,[5]; 10 µM,7.60%
same,% Activity remaining Run 2,[5]; 10 µM,8.70%
same,% Inhibition Run 1,[6],79.7%
same,% Inhibition Run 2,[6],79.1%
same,"% Inhibition, Mean",[6],79%
same,mean % activity,[6],21%
same,% activity,[6]; Run 1,20.3%
same,% activity,[6]; Run 2,20.9%
same,% Inhibition Run 1,[7]; DDR2,21.7%
same,% Inhibition Run 2,[7]; DDR2,11.4%
same,"% Inhibition, Mean",[7]; DDR2,17%
same,mean % activity,[7]; DDR2,83%
same,% activity,"[7]; DDR2, Run 1",78.3%
same,% activity,"[7]; DDR2, Run 2",88.6%
same,% Inhibition Run 1,[8]; TIE2,73.2%
same,% Inhibition Run 2,[8]; TIE2,55%
same,"% Inhibition, Mean",[8]; TIE2,64%
same,mean % activity,[8]; TIE2,36%
same,% activity,"[8]; TIE2, Run 1",26.8%
same,% activity,"[8]; TIE2, Run 2",45%
same,% Inhibition Run 1,[9]; HIPK3,56.3%
same,% Inhibition Run 2,[9]; HIPK3,58.6%
same,"% Inhibition, Mean",[9]; HIPK3,57%
same,mean % activity,[9]; HIPK3,43%
same,% activity,"[9]; HIPK3, Run 1",43.7%
same,% activity,"[9]; HIPK3, Run 2",41.4%
same,"% Activation, Mean value",[10]; ERK1,1.15%
same,% Inhibition Run 1,[10]; ERK1,6.5%
same,% Inhibition Run 2,[10]; ERK1,-8.8%
same,"% Inhibition, Mean",[10]; ERK1,-1.15%
same,mean % activity,[10]; ERK1,101%
same,% activity,"[10]; ERK1, Run 1",93.5%
same,% activity,"[10]; ERK1, Run 2",108.8%
CC(=O)[O-].CC(=O)[O-].CC(=O)[O-].CC(=O)[O-].CC(=O)[O-].CC(=O)[O-].[Zn+2].[Zn+2].[Zn+2].c1ccc(-c2csc(NCCN(CCNc3nc(-c4ccccn4)cs3)CCNc3nc(-c4ccccn4)cs3)n2)nc1.c1ccc(-c2csc(NCCN(CCNc3nc(-c4ccccn4)cs3)CCNc3nc(-c4ccccn4)cs3)n2)nc1 [[L2Zn3]6+],"% Inhibition, Mean",[1],32%
same,"% Inhibition, Run 1 / Run 2",[1],36% and 27%
same,mean % activity,[1],68%
same,% activity,[1]; duplicate runs,64% and 73%
same,"% Inhibition, Mean",[2],1.8%
same,mean % activity,[2],98%
same,% activity,[2]; duplicate runs,93% and 103%
same,"% Inhibition, Mean",[3]; RSK1,73%
same,"% Inhibition, Run 1 / Run 2",[3]; RSK1,76% and 70%
same,mean % activity,[3]; RSK1,27%
same,% activity,"[3]; RSK1, duplicate runs",24% and 30%
same,"% Activation, Mean value",[4],19%
same,"% Inhibition, Mean",[4],-19%
same,mean % activity,[4],119%
same,% Activity Run 1,[4],131.0%
same,% Activity Run 2,[4],107.0%
same,% activity,[4]; duplicate runs,131% and 107%
same,"% Inhibition, Mean",[5],50%
same,"% Inhibition, Run 1 / Run 2",[5],54% and 46%
same,mean % activity,[5],50%
same,% activity,[5]; duplicate runs,46% and 54%
same,"% Inhibition, Mean",[6],81%
same,"% Inhibition, Run 1 / Run 2",[6],83% and 79%
same,mean % activity,[6],19%
same,% Activity inhibition Mean,[6]; 10 µM,81.0%
same,% Activity inhibition Run 1,[6]; 10 µM,83%
same,% Activity inhibition Run 2,[6]; 10 µM,79%
same,% Activity remaining Run 1,[6]; 10 µM,17%
same,% Activity remaining Run 2,[6]; 10 µM,21%
same,% activity,[6]; duplicate runs,17% and 21%
same,"% Inhibition, Mean",[7]; DDR2,19%
same,"% Inhibition, Run 1 / Run 2",[7]; DDR2,23% and 15%
same,mean % activity,[7]; DDR2,81%
same,% activity,"[7]; DDR2, duplicate runs",77% and 85%
same,"% Inhibition, Mean",[8]; TIE2,85%
same,"% Inhibition, Run 1 / Run 2",[8]; TIE2,92% and 78%
same,mean % activity,[8]; TIE2,15%
same,% Activity inhibition Mean,"[8]; TIE2, 10 µM",84.5%
same,% Activity inhibition Run 1,"[8]; TIE2, 10 µM",92%
same,% Activity inhibition Run 2,"[8]; TIE2, 10 µM",77%
same,% Activity remaining Run 1,"[8]; TIE2, 10 µM",8%
same,% Activity remaining Run 2,"[8]; TIE2, 10 µM",23%
same,"% Inhibition, Mean",[9]; HIPK3,15%
same,mean % activity,[9]; HIPK3,85%
same,% activity,"[9]; HIPK3, duplicate runs",97% and 72%
same,"% Activation, Mean value",[10]; ERK1,5%
same,"% Inhibition, Mean",[10]; ERK1,-5%
same,mean % activity,[10]; ERK1,105%
same,% activity,"[10]; ERK1, duplicate runs",115% and 95%
